Source: ChEMBL document CHEMBL1201862, “PubChem BioAssay data set” (2004)
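Five compound concentrations were applied to cells in 96-well plates for 48 hours; endpoints were derived by simple linear interpolation of the resulting dose-response curve. GI50 is the concentration that inhibits growth by half.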 The source made the active and inactive calls. Rule as the data show it: active = GI50 up to about 1.1 µM and inactive = higher.

How the values were obtained:
Assay in all cases: NCI-60 cell line screen, 48 h
XF498 = test system: XF498
A498 = test system: A498
K562 = test system: K562
SN12C = test system: SN12C
DLD-1 = test system: DLD-1
HOP-18 = test system: HOP-18
HOP-62 = test system: HOP-62
OVCAR-5 = test system: OVCAR-5
OVCAR-3 = test system: OVCAR-3
COLO 205 = test system: COLO 205
SF-268 = test system: SF-268
SK-MEL-28 = test system: SK-MEL-28
HOP-92 = test system: HOP-92
UO-31 = test system: UO-31
KM12 = test system: KM12
SK-MEL-5 = test system: SK-MEL-5
IGROV-1 = test system: IGROV-1
U-251 = test system: U-251
SNB-19 = test system: SNB-19
SK-OV-3 = test system: SK-OV-3
RPMI-8226 = test system: RPMI-8226
SNB-78 = test system: SNB-78
HCT-15 = test system: HCT-15
CAKI-1 = test system: CAKI-1
SF-539 = test system: SF-539
DMS-273 = test system: DMS-273
HCC 2998 = test system: HCC 2998
DMS-114 = test system: DMS-114
KM-20L2 = test system: KM-20L2
NCI-H226 = test system: NCI-H226
MCF7 = test system: MCF7
A549 = test system: A549
NCI/ADR-RES = test system: NCI/ADR-RES
SW-620 = test system: SW-620
MOLT-4 = test system: MOLT-4
NCI-H23 = test system: NCI-H23
OVCAR-4 = test system: OVCAR-4
EKVX = test system: EKVX
CCRF-CEM = test system: CCRF-CEM
UACC-257 = test system: UACC-257
LOX IMVI = test system: LOX IMVI
OVCAR-8 = test system: OVCAR-8
NCI-H460 = test system: NCI-H460
HL-60 = test system: HL-60
HCT-116 = test system: HCT-116
HT-29 = test system: HT-29
Malme-3M = test system: Malme-3M
UACC-62 = test system: UACC-62
SK-MEL-2 = test system: SK-MEL-2
SNB-75 = test system: SNB-75
SF-295 = test system: SF-295
RXF 393 = test system: RXF 393
TK-10 = test system: TK-10
PC-3 = test system: PC-3
MDA-N = test system: MDA-N
SR = test system: SR
Hs-578T = test system: Hs-578T
LXFL 529 = test system: LXFL 529
NCI-H522 = test system: NCI-H522
DU-145 = test system: DU-145
MDA-MB-435 = test system: MDA-MB-435
MDA-MB-231 = test system: MDA-MB-231
ACHN = test system: ACHN
786-0 = test system: 786-0
T47D = test system: T47D
M14 = test system: M14

C=CCC(O[Si](C)(C)C(C)(C)C)c1cc(O[Si](C)(C)C(C)(C)C)ccc1OC (centres undefined)
GI50 (XF498): > 58.5 µM (inactive) | GI50 (A498): 46.9 µM (inactive) | GI50 (K562): > 100 µM (inactive) | GI50 (SN12C): > 87.3 µM (inactive) | GI50 (DLD-1): > 70.3 µM (inactive) | GI50 (HOP-18): > 100 µM (inactive) | GI50 (HOP-62): > 100 µM (inactive) | GI50 (OVCAR-5): > 100 µM (inactive) | GI50 (OVCAR-3): > 54.6 µM (inactive) | GI50 (COLO 205): > 83 µM (inactive) | GI50 (SF-268): > 85.9 µM (inactive) | GI50 (SK-MEL-28): > 81.8 µM (inactive) | GI50 (HOP-92): 35.4 µM (inactive) | GI50 (UO-31): > 82 µM (inactive) | GI50 (KM12): > 100 µM (inactive) | GI50 (SK-MEL-5): > 61.1 µM (inactive) | GI50 (IGROV-1): > 100 µM (inactive) | GI50 (U-251): > 71.6 µM (inactive) | GI50 (SNB-19): > 62.2 µM (inactive) | GI50 (SK-OV-3): > 62.4 µM (inactive) | GI50 (RPMI-8226): > 100 µM (inactive) | GI50 (SNB-78): > 49.2 µM (inactive) | GI50 (HCT-15): > 74.5 µM | GI50 (CAKI-1): 40.7 µM (inactive) | GI50 (SF-539): 99.3 µM (inactive) | GI50 (DMS-273): > 95.1 µM (inactive) | GI50 (HCC 2998): > 100 µM (inactive) | GI50 (DMS-114): > 59.7 µM (inactive) | GI50 (KM-20L2): > 100 µM (inactive) | GI50 (NCI-H226): > 53.6 µM (inactive) | GI50 (MCF7): 51.1 µM (inactive) | GI50 (A549): > 64.1 µM (inactive) | GI50 (NCI/ADR-RES): > 64.7 µM (inactive) | GI50 (SW-620): > 100 µM (inactive) | GI50 (MOLT-4): > 70.8 µM (inactive) | GI50 (NCI-H23): > 100 µM (inactive) | GI50 (OVCAR-4): > 67.3 µM (inactive) | GI50 (EKVX): > 100 µM (inactive) | GI50 (CCRF-CEM): > 100 µM (inactive) | GI50 (UACC-257): > 79.4 µM (inactive) | GI50 (LOX IMVI): > 94.2 µM (inactive) | GI50 (OVCAR-8): > 81.3 µM (inactive) | GI50 (NCI-H460): > 70 µM (inactive) | GI50 (HL-60): > 100 µM (inactive) | GI50 (HCT-116): > 80.7 µM (inactive) | GI50 (HT-29): > 100 µM (inactive) | GI50 (Malme-3M): > 100 µM (inactive) | GI50 (UACC-62): > 81.3 µM (inactive) | GI50 (SK-MEL-2): > 75.5 µM (inactive) | GI50 (SNB-75): > 55.6 µM (inactive) | GI50 (SF-295): > 71.8 µM (inactive) | GI50 (RXF 393): 58.9 µM (inactive)

Cc1cc2c(s1)C(=O)c1sccc1C2=O
GI50 (XF498): 1.55 µM (inactive) | GI50 (A498): 1.78 µM (inactive) | GI50 (TK-10): 2.85 µM (inactive) | GI50 (PC-3): 0.942 µM (active) | GI50 (K562): 1.91 µM (inactive) | GI50 (SN12C): 0.388 µM (active) | GI50 (MDA-N): 0.171 µM (active) | GI50 (DLD-1): 1.64 µM (inactive) | GI50 (HOP-18): 1.48 µM (inactive) | GI50 (SR): 3.01 µM (inactive) | GI50 (OVCAR-5): 1.86 µM (inactive) | GI50 (OVCAR-3): 0.83 µM (active) | GI50 (COLO 205): 1.9 µM (inactive) | GI50 (Hs-578T): 0.417 µM (active) | GI50 (SF-268): 0.762 µM (active) | GI50 (SK-MEL-28): 0.2 µM (active) | GI50 (HOP-92): 1.52 µM (inactive) | GI50 (UO-31): 0.805 µM (active) | GI50 (KM12): 1.63 µM (inactive) | GI50 (SK-MEL-5): 0.162 µM (active) | GI50 (LXFL 529): 1.19 µM (inactive) | GI50 (IGROV-1): 1.66 µM (inactive) | GI50 (U-251): 1.29 µM (inactive) | GI50 (SNB-19): 1.66 µM (inactive) | GI50 (SK-OV-3): 2.06 µM (inactive) | GI50 (RPMI-8226): 1.88 µM (inactive) | GI50 (HCT-15): 1.19 µM | GI50 (CAKI-1): 1.75 µM (inactive) | GI50 (SF-539): 0.248 µM (active) | GI50 (NCI-H522): 0.552 µM (active) | GI50 (DMS-273): 1.24 µM (inactive) | GI50 (HCC 2998): 1.75 µM (inactive) | GI50 (KM-20L2): 2.46 µM (inactive) | GI50 (NCI-H226): 1.76 µM (inactive) | GI50 (MCF7): 1.26 µM (inactive) | GI50 (A549): 0.625 µM (active) | GI50 (DU-145): 1.83 µM (inactive) | GI50 (NCI/ADR-RES): 0.459 µM (active) | GI50 (SW-620): 0.275 µM (active) | GI50 (MOLT-4): 2.3 µM (inactive) | GI50 (NCI-H23): 0.171 µM (active) | GI50 (OVCAR-4): 0.561 µM (active) | GI50 (EKVX): 1.84 µM (inactive) | GI50 (UACC-257): 0.194 µM (active) | GI50 (MDA-MB-435): 0.177 µM (active) | GI50 (LOX IMVI): 0.152 µM (active) | GI50 (MDA-MB-231): 1.07 µM (active) | GI50 (OVCAR-8): 0.424 µM (active) | GI50 (NCI-H460): 1.72 µM (inactive) | GI50 (HL-60): 3.34 µM (inactive) | GI50 (ACHN): 1.05 µM (active) | GI50 (HCT-116): 0.998 µM (active) | GI50 (HT-29): 2.04 µM (inactive) | GI50 (Malme-3M): 0.168 µM (active) | GI50 (UACC-62): 0.24 µM (active) | GI50 (786-0): 1.83 µM (inactive) | GI50 (SK-MEL-2): 0.385 µM (active) | GI50 (T47D): 1.63 µM (inactive) | GI50 (M14): 0.176 µM (active) | GI50 (SNB-75): 0.397 µM (active) | GI50 (SF-295): 0.344 µM (active) | GI50 (RXF 393): 1.17 µM (inactive)
